Experimental data: patent US7943759B2, “3-β-D-ribofuranosylthiazolo[4-5-d]pyrimidine nucleosides and uses thereof” (Anadys Pharmaceuticals, Inc., priority 2001, dated 2011)
Counter-ions that a name gives are not always drawn. Like-named read-outs stand apart in the source and are kept apart here.

Key:
[1] = test system: Cynomolgus monkey hepatocytes; conditions: 2 h, 10 μm/ml
Protocol: Hepatocyes often are used to assess the degree to which a compound may be transformed in the body of an animal, and it is known that such transformations may vary with hepatocytes from different species in a way that reflects metabolism in the whole animal.
Cynomolgus monkey hepatocytes were purchased from a commercial supplier and used within 48 hours of preparation. Compounds were prepared in culture media at a concentration of 10 μm/ml and incubated in a standard system with 1,000,000 viable hepatocytes per ml for 2 hours at 37 degrees. The extent of conversion at the end of the incubation period was assessed by measuring 1 by LC-MS/MS.

Caco-2 cells = conditions: human
Protocol: In vitro drug transport assays using differentiated and P-glycoprotein-expressing Caco2 cell monolayers are widely used to predict absorption rates of candidate drug compounds across the intestinal epithelial cell barrier. See, e.g., Hilgers, A. R. et al., Pharm.
Caco-2 cells (obtained from ATCC) are grown to confluency on permeable membranes in chambers allowing access to both the apical and basolateral sides of the membrane. The intact nature of the resulting cellular membrane is assessed using transepithelial electrical resistance. The test compound is added at a known concentration to the apical side of the membrane and the rate of appearance of the compound on the basolateral side of the membrane is assessed by analysis using either HPLC or LC-MS/MS.

[2] = test system: Interferon Alpha (Mu-IFN-α); assay: Murine interferon alpha (Mu-IFN-α) in plasma of mice after oral dosing; type: in vivo; conditions: for mice with detectable interferon in plasma, of the mice used: mice of Tables 1, 2 and 3, oral dosing
Description: The normal mouse provides a useful system for the assessment of the degree to which the inventions described herein provide material improvement in the oral delivery of 1 (isatoribine). Not only can one measure the plasma concentrations of isatoribine arising from oral administration of the said prodrug(s) but also the extensive immunological research conducted in the mouse has provided reagents suitable for measuring the levels of interferon alpha, a cytokine of interest reflecting one of the desired biologic activities of isatoribine. […] Table 1 records the results of an assay for murine interferon alpha in the plasma of mice that were dosed two times with isatoribine, formulated in bicarbonate, at a level of 50 mg/kg by the oral route. […] Table 2 records the results of assays for murine interferon alpha in the plasma of mice that first were dosed with bicarbonate and then four hours later were dosed orally with isatoribine, formulated in bicarbonate, at a level of 50 mg/kg. Interferon was reported in the plasma from four mice, including two that had received the bicarbonate vehicle dose. […] Table 3 records the results of assays for murine interferon alpha in the plasma of mice that were dosed orally with val-isatoribine, dissolved in bicarbonate, at a dose that is equivalent to 50/mg/kg of isatoribine on a molar basis. […] Interferon was detected in all mice assayed at a given time point, indicating the reliability of the effect following val-isatoribine administration. […] The data tabulated in Tables 1, 2, and 3 may be also considered from the point of view of the incidence of measurable interferon levels.

[3] = dog, in vivo, iv, 12.5 mg/kg
Protocol: (§1) Formal toxicology studies of intravenously administered isatoribine and orally administered isatoribine and val-isatoribine were conducted in beagle dogs.
(§2) In each case the compound was administered as a solution, by gavage or by intravenous infusion. Multiple parameters were assessed, as is customary in a toxicology study. In the studies providing higher potential exposure to isatoribine, the plasma concentration of isatoribine was assessed by a LC/MS method.

[4] = cited from earlier work
[5] = Toxicology studies in dogs: GI tolerance (emesis, loose stool, GI lesions) and isatoribine exposure
Protocol: as §1, §2

[6] = Systemic exposure to isatoribine after oral administration to beagle dogs (plasma HPLC-MS/MS); type: in vivo; conditions: at both 10 and 50 mg/kg dose
Protocol: The effect of a prodrug (val-isatoribine, 3) on the systemic exposure to isatoribine (1) after oral administration to beagle dogs was investigated. Isatoribine was prepared in sodium bicarbonate solution.
Four male and four female adult beagle dogs weighing between 15 to 27 kg and approximately 1-2 years old were used at the beginning of the study. The animals were divided into 2 groups of 2 males and 2 females each. The test material was administered by gavage on Days 1 and 8, allowing a 7-day washout period between administrations. Blood samples (2 mL) were collected from each animal at predose, 15, 30 minutes, 1, 2, 3, 4, 6, 8 and 10 hours into lithium heparin tubes after each dosing. The plasma was frozen at −70° C. until analysis. The plasma was analyzed for isatoribine by an HPLC-MS/MS assay.
The ratios for the key pharmacokinetic parameters defining the maximum concentration (Cmax) and total exposure as measured by the area under the time-concentration curve (AUC) for the prodrug and the bicarbonate solution at the 50 mg/kg dose are summarized in Table 6.

[7] = dogs, oral isatoribine, 2.5 mg/kg isatoribine equivalent applied dose
[8] = IV isatoribine, 25 mg/kg applied dose
[9] = oral val-isatoribine, 8.1 mg/kg isatoribine equivalent applied dose
[10] = oral val-isatoribine, 16 mg/kg isatoribine equivalent applied dose
[11] = oral val-isatoribine, 32 mg/kg isatoribine equivalent applied dose
[12] = oral val-isatoribine, 64 mg/kg isatoribine equivalent applied dose

With `COc1nc(N)nc2c1sc(=O)n2[C@@H]1O[C@H](CO)[C@@H](O)[C@H]1O` [Compound 14, 5-Amino-3-β-D-ribofuranosyl-7-methoxy-thiazolo[4,5-d]pyrimidin-2-one] as the compound, how does the melting point read?
The melting point was > 160 °C (dec.).

With `Nc1ncc2sc(=O)n([C@@H]3O[C@H](CO)[C@@H](O)[C@H]3O)c2n1` [Compound 79, 5-Amino-3-β-D-ribofuranosyl-3H-thiazolo-[4,5-d]pyrimidin-2-one] as the compound, how does the “Monkey Hepatocytes” value [1] read?
The value was 10%.

And the melting point?
Its melting point is 220 °C (dec.).

With `CC(C)[C@H](N)C(=O)OC[C@H]1O[C@@H](n2c(=O)sc3c(O)nc(N)nc32)[C@H](O)[C@@H]1O` (as salt: hydrochloride) [Compound 3, 5-Amino-3-(5′-O-L-valinyl-β-D-ribofuranosyl)thiazolo[4,5-d]pyrimidine-2,7-dione Dihydrochloride] as the compound, how does the melting point read?
The melting point was 166 to 168 °C (dec.).

For `CN(C)c1nc(N)nc2c1sc(=O)n2[C@@H]1O[C@H](CO)[C@@H](O)[C@H]1O` [Compound 20, 5-Amino-7-dimethylamino-3-β-D-ribofuranosylthiazolo[4,5-d]pyrimidin-2-one], which melting point is on record?
Its melting point is greater than 112 °C.

With `CC(=O)O[C@@H]1[C@H](OC(C)=O)[C@@H](CO)O[C@H]1n1c(=O)sc2cnc(N)nc21` [Compound 89, 5-Amino-3-(2′,3′-di-O-acetyl-β-D-ribofuranosyl)-3H-thiazolo[4,5-d]pyrimidin-2-one] as the compound, how does the “Caco2 transport compared with 79 (result in words)” value (Caco-2 cells) read?
Its value is “significantly improved transport over 79”.

And the “Monkey Hepatocytes” value [1]?
The value was 45%.

What about the “conversion to 1 compared with 79 (result in words)” value [1] of the same compound?
The value was “more extensively converted to 1 than is 79”.

Which results are given for `Nc1nc2c(sc(=O)n2[C@@H]2O[C@H](CO)[C@@H](O)[C@H]2O)c(=O)[nH]1` [Compound 1, 5-amino-3-β-D-ribofuranosylthiazolo[4,5-d]pyrimidine-2,7-dione, reference compound]?
interferon in plasma (result in words) ([2]; mice dosed two times with isatoribine in bicarbonate, 50 mg/kg oral, interval of four hours): no interferon was measurable; mice with detectable interferon in plasma, of the mice used [2]: 4 of the 114; Emesis or loose stool [3]: Neg.; GI lesions or irritation [3]: Neg.; Emesis or loose stool [4, 7]: Neg.; GI lesions or irritation [4, 7]: Neg.; GI lesions or irritation ([4]; dogs, oral isatoribine, 5 mg/kg isatoribine equivalent applied dose): Neg.; dogs with multiple, scattered red lesions on the intestinal mucosa (gross histopathologic evaluation) ([4]; orally administered isatoribine at 10 mg/kg): four of eight dogs; Emesis or loose stool [5, 8]: Neg.; GI lesions or irritation [5, 8]: Neg.; GI lesions or irritation ([5]; IV isatoribine, 50 mg/kg applied dose): Neg.; GI lesions or irritation ([5]; IV isatoribine, 100 mg/kg applied dose): Neg.; GI tract lesions at necropsy or histopathologic evaluation (result in words) ([5]; intravenously administered isatoribine): No lesions were seen in the GI tract

With `Nc1nc(NC2CCCC2)c2sc(=O)n([C@@H]3O[C@H](CO)[C@@H](O)[C@H]3O)c2n1` [Compound 22, 5-Amino-7-cyclopentylamino-3-β-D-ribofuranosylthiazolo[4,5-d]pyrimidin-2-one] as the compound, how does the melting point read?
Its melting point is > 108 °C (dec.).

Which melting point does the source give for `CN[C@H](C(=O)OC[C@H]1O[C@@H](n2c(=O)sc3c(O)nc(N)nc32)[C@H](O)[C@@H]1O)C(C)C` (as salt: hydrochloride) [Compound 11, 5-Amino-3-(5′-O-[α-L-N-methylvalinyl]-β-D-ribofuranosyl)thiazolo[4,5-d]pyrimidine-2,7-dione Hydrochloride] here?
Its melting point is > 180 °C (dec.).

Which melting point does the source give for `CNc1nc(N)nc2c1sc(=O)n2[C@@H]1O[C@H](CO)[C@@H](O)[C@H]1O` [Compound 18] here?
The melting point was greater than 108 °C.

What does the source list for `CC(C)[C@H](N)C(=O)OC[C@H]1O[C@@H](n2c(=O)sc3c(O)nc(N)nc32)[C@H](O)[C@@H]1O` [Compound 3, 5-Amino-3-(5′-O-L-valinyl-β-D-ribofuranosyl)thiazolo[4,5-d]pyrimidine-2,7-dione Dihydrochloride]?
interferon in plasma (result in words) ([2]; mice dosed orally with val-isatoribine in bicarbonate, equivalent to 50 mg/kg isatoribine): interferon was readily measurable at 1.0 hour, 1.5 hours, and 2.0 hours after dosing; mice with detectable interferon in plasma, of the mice used [2]: 10 of the 30; increase of the magnitude of both the average and peak interferon response over isatoribine ([2]; mice, oral dosing, Tables 1-3): twofold; maximum concentrations of isatoribine after oral dosing compared to isatoribine itself [6]: at least doubled; Emesis or loose stool [5, 9]: Neg.; GI lesions or irritation [5, 9]: Neg.; Emesis or loose stool [5, 10]: Neg.; GI lesions or irritation [5, 10]: Neg.; Emesis or loose stool [5, 11]: Neg.; GI lesions or irritation [5, 11]: Neg.; Emesis or loose stool [5, 12]: Neg.; GI lesions or irritation [5, 12]: Neg.; GI lesions or irritation ([5]; oral val-isatoribine, 130 mg/kg isatoribine equivalent applied dose): Neg.; GI lesions or irritation ([5]; oral val-isatoribine, 260 mg/kg isatoribine equivalent applied dose): Neg.; GI lesions or irritation ([5]; oral val-isatoribine, 390 mg/kg isatoribine equivalent applied dose): Neg.; GI lesions (result in words) ([5]; orally administered val-isatoribine): No GI lesions were found

With `Nc1nc(N)c2sc(=O)n([C@@H]3O[C@H](CO)[C@@H](O)[C@H]3O)c2n1` [Compound 15, 5,7-Diamino-3-β-D-ribofuranosylthiazolo[4,5-d]pyrimidin-2-one] as the compound, how does the melting point read?
The melting point was > 155 °C (dec.).

Which melting point does the source give for `Nc1nc(N2CCCC2)c2sc(=O)n([C@@H]3O[C@H](CO)[C@@H](O)[C@H]3O)c2n1` [Compound 23, 5-Amino-7-pyrrolidino-3-β-D-ribofuranosylthiazolo[4,5-d]pyrimidin-2-one] here?
The melting point was > 112.4 °C (dec.).

What does the source list for `CC(=O)OC[C@H]1O[C@@H](n2c(=O)sc3cnc(N)nc32)[C@H](OC(C)=O)[C@@H]1OC(C)=O` [Compound 78, 5-Amino-3-(2′,3′,5′-tri-O-acetyl-β-D-ribofuranosyl)-3H-thiazolo[4,5-d]pyrimidin-2-one]?
Caco2 transport compared with 79 (result in words) (Caco-2 cells): significantly improved transport over 79; Monkey Hepatocytes [1]: 20%; conversion to 1 compared with 79 (result in words) [1]: more extensively converted to 1 than is 79
